Measurements taken from patent US20090274764A1, “Hollow Foam Beads for Treatment of Glioblastoma” (priority 2008, published 2009).
Like-named read-outs stand apart in the source and are kept apart here.

Legend:
rodent 9L glioma = assay: Inhibition of tumor proliferation, 9L cells counted after 5 days; assay type: cell-based; conditions: 120 h, read-out: growth inhibition
Experimental: The 9L gliosarcoma cell line was obtained from Dr. M. Barker at the University of California at San Francisco Brain Tumor Research Center (San Francisco, Calif., USA). The cells were maintained in tissue culture in Dulbecco's minimum essential medium with 10% fetal bovine serum, streptomycin (80.5 units/ml), penicillin (base; 80.5 units/ml), and 1% L-glutamine (all products from GIBCO laboratories, Grand Island, N.Y., USA). Cells were maintained in a humidified atmosphere of 5% CO2 at 37° C. The cells were grown to confluence, detached with 0.25% trypsin in Dulbecco's phosphate-buffered saline, and resuspended in medium.
Inhibition of tumor proliferation was tested against the rodent 9L glioma. […] The data were analyzed using the two-tailed Student's t-test.

9L gliosarcoma = tested on: 9L gliosarcoma
Source text: 88 rats were intracranially implanted on Day 0 with 9L gliosarcoma.

CO[C@H]1C[C@@H]2CC[C@@H](C)[C@@](O)(O2)C(=O)C(=O)N2CCCC[C@H]2C(=O)O[C@H]([C@H](C)C[C@@H]2CC[C@@H](O)[C@H](OC)C2)CC(=O)[C@H](C)/C=C(\C)[C@@H](O)[C@@H](OC)C(=O)[C@H](C)C[C@H](C)/C=C/C=C/C=C/1C [Rapamycin, rapamycin]
inhibition at 0.01 µg/mL (rodent 9L glioma; 0.01 microgram/ml): 34%
inhibition at 10 µg/mL (rodent 9L glioma; 10 microgram/ml): 62%
toxicity (9L gliosarcoma; rat, in vivo, ip, 2 mg/kg): none of the rats that received systemic injections of rapamycin showed overt signs of toxicity
% Survival (9L gliosarcoma; treated Day 0, at Day 0): 100%
% Survival (9L gliosarcoma; treated Day 0, at Day 12, 1st line): 100%
% Survival (9L gliosarcoma; treated Day 0, at Day 12, 2nd line): 100%
% Survival (9L gliosarcoma; treated Day 0, at Day 13, 1st line): 100%
% Survival (9L gliosarcoma; treated Day 0, at Day 13, 2nd line): 100%
% Survival (9L gliosarcoma; treated Day 0, at Day 14, 1st line): 100%
% Survival (9L gliosarcoma; treated Day 0, at Day 14, 2nd line): 100%
% Survival (9L gliosarcoma; treated Day 0, at Day 15, 1st line): 100%
% Survival (9L gliosarcoma; treated Day 0, at Day 15, 2nd line): 100%
% Survival (9L gliosarcoma; treated Day 0, at Day 16, 1st line): 100%
% Survival (9L gliosarcoma; treated Day 0, at Day 16, 2nd line): 100%
% Survival (9L gliosarcoma; treated Day 0, at Day 17, 1st line): 100%
% Survival (9L gliosarcoma; treated Day 0, at Day 17, 2nd line): 100%
% Survival (9L gliosarcoma; treated Day 0, at Day 18, 1st line): 100%
% Survival (9L gliosarcoma; treated Day 0, at Day 18, 2nd line): 100%
% Survival (9L gliosarcoma; treated Day 0, at Day 19, 1st line): 100%
% Survival (9L gliosarcoma; treated Day 0, at Day 19, 2nd line): 100%
% Survival (9L gliosarcoma; treated Day 0, at Day 20, 1st line): 100%
% Survival (9L gliosarcoma; treated Day 0, at Day 20, 2nd line): 100%
% Survival (9L gliosarcoma; treated Day 0, at Day 21, 1st line): 100%
% Survival (9L gliosarcoma; treated Day 0, at Day 21, 2nd line): 100%
% Survival (9L gliosarcoma; treated Day 0, at Day 22, 1st line): 100%
% Survival (9L gliosarcoma; treated Day 0, at Day 22, 2nd line): 100%
% Survival (9L gliosarcoma; treated Day 0, at Day 23, 1st line): 100%
% Survival (9L gliosarcoma; treated Day 0, at Day 23, 2nd line): 100%
% Survival (9L gliosarcoma; treated Day 0, at Day 24, 1st line): 100%
% Survival (9L gliosarcoma; treated Day 0, at Day 24, 2nd line): 100%
% Survival (9L gliosarcoma; treated Day 0, at Day 25, 1st line): 100%
% Survival (9L gliosarcoma; treated Day 0, at Day 25, 2nd line): 75%
% Survival (9L gliosarcoma; treated Day 0, at Day 26, 1st line): 75%
% Survival (9L gliosarcoma; treated Day 0, at Day 26, 2nd line): 75%
% Survival (9L gliosarcoma; treated Day 0, at Day 27, 1st line): 75%
% Survival (9L gliosarcoma; treated Day 0, at Day 27, 2nd line): 75%
% Survival (9L gliosarcoma; treated Day 0, at Day 28, 1st line): 75%
% Survival (9L gliosarcoma; treated Day 0, at Day 28, 2nd line): 50%
% Survival (9L gliosarcoma; treated Day 0, at Day 29, 1st line): 50%
% Survival (9L gliosarcoma; treated Day 0, at Day 29, 2nd line): 50%
% Survival (9L gliosarcoma; treated Day 0, at Day 30, 1st line): 50%
% Survival (9L gliosarcoma; treated Day 0, at Day 30, 2nd line): 37.5%
% Survival (9L gliosarcoma; treated Day 0, at Day 31, 1st line): 37.5%
% Survival (9L gliosarcoma; treated Day 0, at Day 31, 2nd line): 37.5%
% Survival (9L gliosarcoma; treated Day 0, at Day 32, 1st line): 37.5%
% Survival (9L gliosarcoma; treated Day 0, at Day 32, 2nd line): 37.5%
% Survival (9L gliosarcoma; treated Day 0, at Day 33, 1st line): 37.5%
% Survival (9L gliosarcoma; treated Day 0, at Day 33, 2nd line): 37.5%
% Survival (9L gliosarcoma; treated Day 0, at Day 35, 1st line): 37.5%
% Survival (9L gliosarcoma; treated Day 0, at Day 35, 2nd line): 25%
% Survival (9L gliosarcoma; treated Day 0, at Day 40, 1st line): 25%
% Survival (9L gliosarcoma; treated Day 0, at Day 41, 2nd line): 0%
% Survival (9L gliosarcoma; treated Day 5, at Day 0): 100%
% Survival (9L gliosarcoma; treated Day 5, at Day 12, 1st line): 100%
% Survival (9L gliosarcoma; treated Day 5, at Day 12, 2nd line): 100%
% Survival (9L gliosarcoma; treated Day 5, at Day 13, 1st line): 100%
% Survival (9L gliosarcoma; treated Day 5, at Day 13, 2nd line): 100%
% Survival (9L gliosarcoma; treated Day 5, at Day 14, 1st line): 100%
% Survival (9L gliosarcoma; treated Day 5, at Day 14, 2nd line): 100%
% Survival (9L gliosarcoma; treated Day 5, at Day 15, 1st line): 100%
% Survival (9L gliosarcoma; treated Day 5, at Day 15, 2nd line): 100%
% Survival (9L gliosarcoma; treated Day 5, at Day 16, 1st line): 100%
% Survival (9L gliosarcoma; treated Day 5, at Day 16, 2nd line): 100%
% Survival (9L gliosarcoma; treated Day 5, at Day 17, 1st line): 100%
% Survival (9L gliosarcoma; treated Day 5, at Day 17, 2nd line): 100%
% Survival (9L gliosarcoma; treated Day 5, at Day 18, 1st line): 100%
% Survival (9L gliosarcoma; treated Day 5, at Day 18, 2nd line): 100%
% Survival (9L gliosarcoma; treated Day 5, at Day 19, 1st line): 100%
% Survival (9L gliosarcoma; treated Day 5, at Day 19, 2nd line): 100%
% Survival (9L gliosarcoma; treated Day 5, at Day 20, 1st line): 100%
% Survival (9L gliosarcoma; treated Day 5, at Day 20, 2nd line): 100%
% Survival (9L gliosarcoma; treated Day 5, at Day 21, 1st line): 100%
% Survival (9L gliosarcoma; treated Day 5, at Day 21, 2nd line): 100%
% Survival (9L gliosarcoma; treated Day 5, at Day 22, 1st line): 100%
% Survival (9L gliosarcoma; treated Day 5, at Day 22, 2nd line): 100%
% Survival (9L gliosarcoma; treated Day 5, at Day 23, 1st line): 100%
% Survival (9L gliosarcoma; treated Day 5, at Day 23, 2nd line): 100%
% Survival (9L gliosarcoma; treated Day 5, at Day 24, 1st line): 100%
% Survival (9L gliosarcoma; treated Day 5, at Day 24, 2nd line): 100%
% Survival (9L gliosarcoma; treated Day 5, at Day 25, 1st line): 100%
% Survival (9L gliosarcoma; treated Day 5, at Day 26, 2nd line): 75%
% Survival (9L gliosarcoma; treated Day 5, at Day 27, 1st line): 75%
% Survival (9L gliosarcoma; treated Day 5, at Day 27, 2nd line): 62.5%
% Survival (9L gliosarcoma; treated Day 5, at Day 28, 1st line): 62.5%
% Survival (9L gliosarcoma; treated Day 5, at Day 28, 2nd line): 50%
% Survival (9L gliosarcoma; treated Day 5, at Day 29, 1st line): 50%
% Survival (9L gliosarcoma; treated Day 5, at Day 29, 2nd line): 50%
% Survival (9L gliosarcoma; treated Day 5, at Day 30, 1st line): 50%
% Survival (9L gliosarcoma; treated Day 5, at Day 30, 2nd line): 50%
% Survival (9L gliosarcoma; treated Day 5, at Day 31, 1st line): 50%
% Survival (9L gliosarcoma; treated Day 5, at Day 31, 2nd line): 50%
% Survival (9L gliosarcoma; treated Day 5, at Day 32, 1st line): 50%
% Survival (9L gliosarcoma; treated Day 5, at Day 32, 2nd line): 37.5%
% Survival (9L gliosarcoma; treated Day 5, at Day 33, 1st line): 37.5%
% Survival (9L gliosarcoma; treated Day 5, at Day 33, 2nd line): 37.5%
% Survival (9L gliosarcoma; treated Day 5, at Day 35, 1st line): 37.5%
% Survival (9L gliosarcoma; treated Day 5, at Day 35, 2nd line): 37.5%
% Survival (9L gliosarcoma; treated Day 5, at Day 40, 1st line): 37.5%
% Survival (9L gliosarcoma; treated Day 5, at Day 40, 2nd line): 37.5%
% Survival (9L gliosarcoma; treated Day 5, at Day 41, 1st line): 37.5%
% Survival (9L gliosarcoma; treated Day 5, at Day 41, 2nd line): 0%
Statistical Significance (survival) vs Day 0-0.2% (9L gliosarcoma; treatment Day 0): 0.4226
Statistical Significance (survival) vs Day 0-2.2% (9L gliosarcoma; treatment Day 0): 0.2237
Statistical Significance (survival) vs Day 0-28% (9L gliosarcoma; treatment Day 0): 0.7869
Statistical Significance (survival) vs Day 0-Placebo (9L gliosarcoma; treatment Day 0): 0.0001
Statistical Significance (survival) vs Day 5-0.2% (9L gliosarcoma; treatment Day 0): 0.0002
Statistical Significance (survival) vs Day 5-2.2% (9L gliosarcoma; treatment Day 0): 0.0008
Statistical Significance (survival) vs Day 5-Placebo (9L gliosarcoma; treatment Day 0): 0.0001
Statistical Significance (survival) vs Day 5-Systemic (9L gliosarcoma; treatment Day 0): 0.5157
Statistical Significance (survival) vs Day 0-0.2% (9L gliosarcoma; treatment Day 5): 0.2137
Statistical Significance (survival) vs Day 0-28% (9L gliosarcoma; treatment Day 5): 0.9992
Statistical Significance (survival) vs Day 0-Placebo (9L gliosarcoma; treatment Day 5): 0.0001
Statistical Significance (survival) vs Day 0-Systemic (9L gliosarcoma; treatment Day 5): 0.5157
Statistical Significance (survival) vs Day 5-0.2% (9L gliosarcoma; treatment Day 5): 0.0001
Statistical Significance (survival) vs Day 5-2.2% (9L gliosarcoma; treatment Day 5): 0.003
Statistical Significance (survival) vs Day 5-28% (9L gliosarcoma; treatment Day 5): 0.222
Statistical Significance (survival) vs Day 5-Placebo (9L gliosarcoma; treatment Day 5): 0.0001
Mean Survival (9L gliosarcoma; treatment initiated 5 days after tumor implantation): 29 days
Mean Survival (9L gliosarcoma; treatment initiated concurrently with tumor implantation (Day 0)): 28 days
